Reference: PubChem BioAssay AID2252 (Southern Research Specialized Biocontainment Screening …, 2010)

What follows are molecules tested on THP-1 viability, CellTiter-Glo luminescence, 72 h (assay: PubChem AID 2252).

SMILES	EC50
N=c1c2c(n(Cc3cccc(Cl)c3)c3c1CCC3)CCCC2	13.5 µM
CCOC(=O)N1CCN(C(=S)NC(=O)c2ccc(Br)cc2)CC1	< 0.1 µM
CN1CCN(C2Cc3cc(F)ccc3Sc3ccc(Cl)cc32)CC1 (stereo unspecified)	14.7 µM
COc1cc(Br)cc(/C=N/c2ncn[nH]2)c1O	49.9 µM
CCN1CCN(CCCNC(=O)c2ccc(/C=C3/Sc4ccccc4N(Cc4ccccc4F)C3=O)cc2)CC1	11.2 µM
COc1cc(CNCCc2c[nH]c3ccccc23)ccc1OCc1ccccc1F	13.1 µM
CC[C@H](C)[C@@H](CN[C@H](C)CNC)NCCC(c1ccccc1)c1ccccc1	7.07 µM
c1ccc2cc(CSCc3nc4ccccc4[nH]3)ccc2c1	48.5 µM
CCCCCc1ccc(OCCCC[n+]2ccccc2)c(CCCCC)c1	1.48 µM
CCN(CC)c1ccc(CNc2nc3ccccc3n2CCN2CCCCC2)cc1	16.5 µM
NC1=C(Br)C(=O)c2ccccc2C1=O	9 µM
CCN1CCN(Cc2ccc(NC(=O)c3cc(NC(=O)c4cc(-c5ccc(OC)cc5)n[nH]4)cc(OC)c3)cc2C(F)(F)F)CC1	3.92 µM
COc1ccc(C(=O)NC(=S)NNC(=O)c2cnccn2)cc1OC	6.82 µM
Cc1ccc(C(=O)NCCN2C3=NC[C@@H](Cc4ccccc4)N3C[C@H]2Cc2ccc(O)cc2)cc1Br	8.09 µM
Nc1ncn([C@@H]2O[C@H](CO)[C@@H](O)[C@H]2O)c(=O)n1	19.7 µM
C#CC(=O)N(c1cccc(OC)c1)C(C(=O)NC1CCCC1)c1cccs1 (stereo unspecified)	0.9 µM
O=C(C[n+]1cc(-c2ccc(Cl)cc2)n2c1CCC2)N1c2ccccc2Sc2ccccc21	15.4 µM
CC[C@@H](C)[C@H](CNC)NC[C@@H](Cc1cccc2ccccc12)NCCc1cccc(C(F)(F)F)c1	5.86 µM
Cc1ccc(C(=O)Sc2cccccc2=O)cc1	2.27 µM
O=c1cc(-c2ccccc2)cc(-c2ccccc2)n1O	14 µM
CCc1ccc(N2CC(C(=O)N/N=C/c3cc([N+](=O)[O-])ccc3O)CC2=O)cc1 (stereo unspecified)	11.3 µM

SMILES	EC50
COc1ccc2c(C(=O)CCl)c[nH]c2c1	11.2 µM
CN(C)c1ccc(Nc2nc(N)c3ccccc3n2)cc1	6 µM
c1ccc2c(c1)CCN(c1nc3ccccc3n3cnnc13)C2	24.8 µM
COc1ccc(N2CC(C(=O)N/N=C/c3cc([N+](=O)[O-])ccc3O)CC2=O)cc1 (stereo unspecified)	17.7 µM
O=C(N/N=C/c1ccc([N+](=O)[O-])o1)C(O)c1ccccc1 (stereo unspecified)	17.9 µM
Nc1nc(Nc2ccccc2)nc2ccccc12	3.32 µM
Oc1ccc(/C=N/Nc2nccnc2Cl)c(O)c1	1.63 µM
CCCCn1c(NS(=O)(=O)c2ccccc2)c(C(=O)OCC)c2nc3ccccc3nc21	20.1 µM
OC(CN1CCCCC1)Cn1c2ccccc2c2cc(Br)ccc21 (stereo unspecified)	17.5 µM
C#CCOCCOCCOCCNc1nc(N2CCN(C(=O)CCCCCCCCCCNC(=O)[C@@H](CCSC)n3cc(CCO)nn3)CC2)nc(N2CCN(C(=O)CCCCCCCCCCNC(=O)[C@H]([C@@H](C)CC)n3cc(CCCCN=C(N)N)nn3)CC2)n1	9.78 µM
N#C/C(=C\c1ccc(O)c(O)c1)C(=O)NCc1ccccc1	27.1 µM
CCOC(=O)N1CCN(Cc2cc(Cl)c3cccnc3c2O)CC1	3.12 µM
O=C(NNc1nc2ccc(F)cc2s1)c1cccc(F)c1	8.07 µM
CCCC(=O)c1c(NC)cc(C)oc1=O	15.9 µM
Cc1ccc(C(=O)NCC(=O)NCCc2ccc(S(N)(=O)=O)cc2)s1	< 0.1 µM
O=C(Nc1nnc(-c2ccco2)o1)c1cccc(Cl)c1	21.1 µM
S=C1SCN(Cc2cccnc2)CN1Cc1cccnc1	3.92 µM
Clc1ccc(Nc2ccc(NCc3ccccc3)nn2)cc1	22.4 µM
O=C(N/N=C/c1c[nH]c2ccccc12)c1cc2ccccc2o1	21.3 µM
O=C(COc1ccc(Br)cc1CNCCc1ccccc1)NCc1ccccc1	10.4 µM
CCC(O)(CC)C(=O)N/N=C/c1cc(Br)cc(Br)c1O	15.4 µM

SMILES	EC50
CSc1nc2cc(Oc3cccc(Cl)c3Cl)c(Cl)cc2[nH]1	43.9 µM
O=C(Nc1ccccc1)Nc1cccc(Cl)c1	43.7 µM
CC(C)[C@@H](C(=O)NC1CCCC1)N1C(=O)N2CCc3c([nH]c4ccccc34)[C@@]2(C)C1=O	45.5 µM
CN(C)CCCNc1c2ccccc2nc2ccccc12	3.46 µM
CCc1c(C)nc2cc(-c3cc(OC)cc(OC)c3)nn2c1N1CCCC1	31 µM
CCc1cccc(NC(=O)CSC2=NS(=O)(=O)c3ccccc32)c1	15.6 µM
CN1CCN(Cc2cc(COCc3ccccc3)c3cccnc3c2O)CC1	2.82 µM
COc1ccc(Nc2nc(-c3ccccc3)nc3ccccc23)cc1S(=O)(=O)N1CCOCC1	39 µM
CCCCCCCCCCOC(=O)Cn1c(COc2cccc(C)c2)[n+](C)c2ccccc21	2.43 µM
Nc1nonc1C(=O)NCCN=Cc1cc(Cc2ccccc2)cc(Br)c1O	28 µM
c1ccc(CNc2nc(-c3ccccn3)nc3ccccc23)cc1	1.72 µM
CNC[C@H](Cc1ccccc1)NC[C@@H](Cc1cccc2ccccc12)NCCc1ccc(C)cc1	4.01 µM
C/C(=N\NC(=O)c1cccc(Br)c1)c1ccccn1	1.55 µM
O=[N+]([O-])c1ccc(/C=N/NC(=S)Nc2ccc(Cl)cc2Cl)s1	47.5 µM
COc1ccc(C2NCCc3c2[nH]c2ccccc32)cc1COc1ccc(F)cc1 (stereo unspecified)	6.94 µM
O=C(N/N=C/c1c(O)ccc2ccccc12)c1ccc(CO)nc1	1.41 µM
CCc1ccc2c(c1)CCCN2C(=O)c1ccccc1C(=O)O	38.3 µM
COc1ccc(/C=C/c2cc[n+](C(=O)Cc3ccccc3)cc2)cc1	3.92 µM
NC(=O)c1ccsc1NC(=O)c1ccc2c(c1)CCCC2	40.4 µM
COc1ccc2[nH]cc(C(=O)CCl)c2c1	7.78 µM
CC(=O)NC(c1cccc([N+](=O)[O-])c1)c1ccc2cccnc2c1O (stereo unspecified)	0.47 µM

SMILES	EC50
CCCCCCCCCCCCCCCC[N+](C)(C)C	1.43 µM
CC1CCC(C(C)C)C(OC(=O)Cn2c(-c3ccc(Br)cc3)[n+](C)c3ccccc32)C1 (stereo unspecified)	2.16 µM
Cc1cc(NC2CCCCC2)nc(NCc2ccccc2)n1	14.9 µM
Oc1ccc(CN2CCCc3ccccc32)c2cccnc12	3.33 µM
O=C(Nc1ccc(-c2nc3ccccc3[nH]2)cc1)c1ccco1	10.6 µM
COc1ccc(C(=O)C[n+]2cc(Br)cc3ccccc32)cc1[N+](=O)[O-]	< 0.1 µM
Nn1cnnc1N/N=C\c1ccc(-c2ccccc2[N+](=O)[O-])o1	41.3 µM
Cc1ccc(-c2csc(N=C(N)N)n2)c(C)c1	26.9 µM
CC(C)[C@@H]1CC[C@@H](C)C[C@H]1OC(=O)C[n+]1cc(-c2ccc(Cl)cc2)n2c1CCCCC2	2.19 µM
CCCCCOc1ccc(C)cc1CN(CCCl)CCCl	28.9 µM
O=C(NC1CCCCC1)c1ccc([N+](=O)[O-])o1	9.5 µM
O=C(Nc1ccncc1)c1cc(-c2ccccn2)nc2ccccc12	23.7 µM
CN1CCN(c2ccc(NC(=O)c3ccc(-c4ccc(Br)cc4)o3)cc2)CC1	7.84 µM
Cc1ccc2nsnc2c1S(=O)(=O)NCc1ccc2c(c1)OCO2	< 0.1 µM
CN1CCN(c2nc3cc(C(F)(F)F)ccc3n3cccc23)CC1	42.3 µM
O=C(O)CC/C(=C\c1ccccc1[N+](=O)[O-])c1nc2ccccc2s1	< 0.1 µM
Fc1ccc(Nc2c3c(nc4ccccc24)CCC3)cc1	6.33 µM
c1ccc(Nc2nc(NCC3CCCO3)c3ccccc3n2)cc1 (stereo unspecified)	3.83 µM
